“And” between values parts separate entries of the source, which are not always exact repeats. Equal values may be shown once. Inconclusive results and toxic doses are left out. Rule for the calls: active = survival T/C of 150% or more; inactive = T/C below 125% in these data.
System: P335 leukemia ip, BDF1 mice, survival T/C %
Assay: NCI In Vivo Anticancer Drug Screen. Data for tumor model P335 Leukemia (intraperitoneal) in B6D2F1 (BDF1) mice
Details: endpoint: mean survival time, higher = longer survival
Experimental: The antitumor activity of compounds was measured in mice bearing transplantable tumors. Survival or tumor size were measured and the results are expressed as the measurement made in the treated group (T) divided by the measurement made in the vehicle treated control group (C). The tumor model used in this assay is P335 Leukemia (intraperitoneal) in B6D2F1 (BDF1) mice

[1] = dose: 16.0 mg/kg/injection, schedule: Q01DX Z (ip), vehicle: carboxymethylcellulose (CMC)
[2] = dose: 125.0 mg/kg/injection, schedule: Q01DX Z (ip), vehicle: carboxymethylcellulose (CMC)

Measured: T/C

N#Cc1cn(C2OC(CO)C(O)C2O)c2ncnc(N)c12 (configuration not stated)
inactive: dose: 0.25 mg/kg/injection, schedule: Q01DX Z (ip), vehicle: carboxymethylcellulose (CMC) 106 % of control | dose: 0.5 mg/kg/injection, schedule: Q01DX Z (ip), vehicle: carboxymethylcellulose (CMC) 98 % of control

CCCNc1ncnc2[nH]ncc12
inactive: dose: 0.62 mg/kg/injection, schedule: Q01DX Z (ip), vehicle: water 95 % of control | dose: 5.0 mg/kg/injection, schedule: Q01DX Z (ip), vehicle: water 94 % of control

CS(=O)(=O)OCCCl
inactive: dose: 0.8 mg/kg/injection, schedule: Q01DX Z (ip), vehicle: carboxymethylcellulose (CMC) 98 % of control | dose: 1.6 mg/kg/injection, schedule: Q01DX Z (ip), vehicle: carboxymethylcellulose (CMC) 93 % of control | dose: 3.1 mg/kg/injection, schedule: Q01DX Z (ip), vehicle: carboxymethylcellulose (CMC) 102 % of control | dose: 6.2 mg/kg/injection, schedule: Q01DX Z (ip), vehicle: carboxymethylcellulose (CMC) 86 % of control

S=P(N1CC1)(N1CC1)N1CC1
inactive: dose: 0.37 mg/kg/injection, schedule: Q01DX Z (ip), vehicle: saline 107 % of control | dose: 0.75 mg/kg/injection, schedule: Q01DX Z (ip), vehicle: saline 109 % of control | dose: 1.5 mg/kg/injection, schedule: Q01DX Z (ip), vehicle: saline 104 % of control | dose: 3.0 mg/kg/injection, schedule: Q01DX Z (ip), vehicle: saline 112 % of control

OCC1OC(n2cnc3c(=S)nc[nH]c32)C(O)C1O (configuration not stated)
inactive: [1] 87 % of control and 90 % of control | dose: 31.0 mg/kg/injection, schedule: Q01DX Z (ip), vehicle: carboxymethylcellulose (CMC) 109 % of control and 110 % of control | dose: 62.5 mg/kg/injection, schedule: Q01DX Z (ip), vehicle: carboxymethylcellulose (CMC) 98 % of control | [2] 93 % of control

CS(=O)(=O)OCC(O)C(O)COS(C)(=O)=O (configuration not stated)
inactive: dose: 187.5 mg/kg/injection, schedule: Q01DX Z (ip), vehicle: saline 96 % of control | dose: 375.0 mg/kg/injection, schedule: Q01DX Z (ip), vehicle: saline 111 % of control | dose: 750.0 mg/kg/injection, schedule: Q01DX Z (ip), vehicle: saline 102 % of control

S=c1nc[nH]c2nc[nH]c12
inactive: dose: 37.5 mg/kg/injection, schedule: Q01DX Z (ip), vehicle: other 116 % of control | dose: 75.0 mg/kg/injection, schedule: Q01DX Z (ip), vehicle: other 114 % of control | dose: 300.0 mg/kg/injection, schedule: Q01DX Z (ip), vehicle: other 122 % of control

CC(CCC(C)OS(C)(=O)=O)OS(C)(=O)=O (configuration not stated)
inactive: dose: 5.0 mg/kg/injection, schedule: Q01DX Z (ip), vehicle: carboxymethylcellulose (CMC) 88 % of control | dose: 10.0 mg/kg/injection, schedule: Q01DX Z (ip), vehicle: carboxymethylcellulose (CMC) 90 % of control | dose: 20.0 mg/kg/injection, schedule: Q01DX Z (ip), vehicle: carboxymethylcellulose (CMC) 87 % of control

CCOC(=O)NP(=O)(N1CC1(C)C)N1CC1(C)C (configuration not stated)
inactive: dose: 4.0 mg/kg/injection, schedule: Q01DX Z (ip), vehicle: carboxymethylcellulose (CMC) 101 % of control | dose: 8.0 mg/kg/injection, schedule: Q01DX Z (ip), vehicle: carboxymethylcellulose (CMC) 106 % of control | [1] 114 % of control | dose: 31.25 mg/kg/injection, schedule: Q01DX Z (ip), vehicle: carboxymethylcellulose (CMC) 101 % of control | [2] 88 % of control | dose: 250.0 mg/kg/injection, schedule: Q01DX Z (ip), vehicle: carboxymethylcellulose (CMC) 93 % of control

CC[C@H](c1ccc(O)cc1)[C@@H](CC)c1ccc(O)cc1
inactive: dose: 0.5 mg/kg/injection, schedule: Q01DX Z (sc), vehicle: steriod suspending solution 103 % of control | dose: 1.0 mg/kg/injection, schedule: Q01DX Z (sc), vehicle: steriod suspending solution 108 % of control | dose: 2.0 mg/kg/injection, schedule: Q01DX Z (sc), vehicle: steriod suspending solution 115 % of control and 116 % of control | dose: 4.0 mg/kg/injection, schedule: Q01DX Z (sc), vehicle: steriod suspending solution 114 % of control | dose: 8.0 mg/kg/injection, schedule: Q01DX Z (sc), vehicle: steriod suspending solution 122 % of control | dose: 16.0 mg/kg/injection, schedule: Q01DX Z (sc), vehicle: steriod suspending solution 111 % of control | dose: 31.0 mg/kg/injection, schedule: Q01DX Z (sc), vehicle: steriod suspending solution 105 % of control | dose: 62.5 mg/kg/injection, schedule: Q01DX Z (sc), vehicle: steriod suspending solution 103 % of control and 111 % of control | dose: 125.0 mg/kg/injection, schedule: Q01DX Z (sc), vehicle: steriod suspending solution 103 % of control | dose: 250.0 mg/kg/injection, schedule: Q01DX Z (sc), vehicle: steriod suspending solution 106 % of control | dose: 500.0 mg/kg/injection, schedule: Q01DX Z (sc), vehicle: steriod suspending solution 97 % of control
